Source: publication PMC6934184, “Selective DNA-PKcs inhibition extends the therapeutic index of localized radiotherapy and chemotherapy” (The Journal of Clinical Investigation, 2019)

Biological target: T1, STK38L (NDR2) (Homo sapiens, UniProt Q9Y2H1)
T1 construct: purchased Thermo Fisher Scientific (Life Technologies) SelectScreen
Experiment: SelectScreen LanthaScreen
Format: binding
Details: read-out: % displacement
Summary of the method: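 NU5455 was profiled across the SelectScreen Broad panel of kinase activity and binding assays. Z'LYTE reactions such as CSF1R ran at apparent Km ATP, while the Adapta CAMK1 assay used ATP listed as 10. Values are given as percent.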

T1 sequence (Q9Y2H1 whole entry): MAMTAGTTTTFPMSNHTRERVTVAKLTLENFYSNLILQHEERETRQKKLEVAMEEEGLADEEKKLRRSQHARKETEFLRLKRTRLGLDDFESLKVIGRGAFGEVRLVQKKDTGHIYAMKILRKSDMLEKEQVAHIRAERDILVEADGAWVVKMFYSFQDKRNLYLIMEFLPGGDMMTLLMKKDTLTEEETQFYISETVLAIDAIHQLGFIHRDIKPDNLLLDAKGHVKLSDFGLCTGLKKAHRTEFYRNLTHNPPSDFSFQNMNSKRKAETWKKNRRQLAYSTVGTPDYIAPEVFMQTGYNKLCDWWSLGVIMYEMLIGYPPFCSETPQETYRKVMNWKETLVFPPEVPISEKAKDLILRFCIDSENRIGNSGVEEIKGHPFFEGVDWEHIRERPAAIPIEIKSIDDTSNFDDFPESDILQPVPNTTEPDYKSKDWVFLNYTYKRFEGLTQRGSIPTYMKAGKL

CN(C(=O)CN1CCOCC1)c1ccc2sc3c(-c4cccc5c(=O)cc(N6CC7CCC(C6)O7)oc45)cccc3c2c1 [NU5455]
inhibition at 1 µM: -8.4%
